Measured values taken from patent publication US12473313B2, “Therapeutic compounds and methods of use thereof” (Regents of the University of Minnesota, priority 2020, dated 2025).

Key:
mice with HFpEF = mice with HFpEF (Jeong et al. J Am Heart Assoc. 2016); cited from earlier work
[1] = target: mitochondrial reactive oxygen species (mitoROS); test: ROS-Glo Assay of superoxide dismutase activity on menadione-induced mitoROS; format: cell-based; details: for half maximal effective concentration (EC50) for mitoROS suppression: FIG. 6, compared with mitoTEMPO
Description: To test compounds for mitochondrial antioxidant behavior, the ROS-Glo Assay to assess superoxide dismutase activity of induced mitochondrial reactive oxygen species (mitoROS). In this assay, menadione is used to induce mitoROS production, and then a […] is used to measure the resultant hydrogen peroxide levels. A higher level of hydrogen peroxide means more dismutase activity.

[2] = Body weight and serum glucose of treated diabetic mice; format: in vivo; details: 1 mg/kg/day for 2 weeks, versus before treatment
Procedure: (§1) To test compound activity against mitochondrial oxidative stress and diastolic dysfunction Mice were fed a high fat diet for 16 weeks starting at 6 weeks of age. Before treatment, fasting blood glucose (Gluc) and body weight were measured. Gluc was used to screen for diabetes mellitus (DM). Echocardiography was used to identify DD by measuring the E/e′ ratio. Treatment of compounds 58 and 94 was 1 mg/kg/day for 2 weeks. Then, E/e′ was reassessed.

diabetic mice = test: Diastolic dysfunction (E/e′ ratio by echocardiography) in high fat diet diabetic mice; format: in vivo; details: diabetic mice (high fat diet 16 weeks), 1 mg/kg/day for 2 weeks
Procedure: as §1

[3] = system: mitoROS in diabetic (DM) mice; test: mitoROS in diabetic (DM) mice measured by mitoSOX Red fluorescence; format: in vivo; details: FIG. 9
Procedure: as §1

CC1(C)CC(NC(=O)C[P+](c2ccccc2)(c2ccccc2)c2ccccc2)CC(C)(C)N1[O] [mitoTEMPO]
diastolic function (mice with HFpEF): improve diastolic function

COc1cc(OC)c([P+](CC(=O)NC2CC(C)(C)N([O])C(C)(C)C2)(c2c(OC)cc(OC)cc2OC)c2c(OC)cc(OC)cc2OC)c(OC)c1.[Cl-] [compound 88, 2,2,6,6-Tetramethyl-4-[[2-(tri-2,4,6-trimethoxyphenyl(2-phosphonia))acetyl]amino]-1-piperidinyloxy Chloride]
half maximal effective concentration (EC50) for mitoROS suppression [1]: lower EC50s for mitoROS suppression than did mitoTEMPO

COc1ccc([P+](CCC(=O)NC2CC(C)(C)N(O)C(C)(C)C2)(c2ccc(OC)cc2)c2ccc(OC)cc2)cc1.[Br-] [compound 58, 2,2,6,6-Tetramethyl-4-[[3-(tri-4-methoxyphenylphosphonio)-propionyl]amino]-1-piperidinyloxy Bromide]
body weight [2]: Neither serum glucose nor body weight were affected | diastolic dysfunction as measured by E/e′ ratio (diabetic mice): Diastolic dysfunction is treated | mitoROS as measured by mitoSOX Red fluorescence [3]: able to reduces mitoROS | half maximal inhibitory concentration (IC50) ([1]; ROS-Glo assay, FIG. 5, compared with mitoTEMPO): better than that of mitoTEMPO

COc1ccc([P@TB15+](CC(=O)NC2CC(C)(C)N([O])C(C)(C)C2)(c2ccc(OC)cc2)c2ccc(OC)cc2)cc1 [compound 2, 2,2,6,6-Tetramethyl-4-[[2-(tri-4-methoxyphenyl-phosphonio)acetyl]amino]-1-piperidinyloxy Chloride]
half maximal effective concentration (EC50) for mitoROS suppression [1]: lower EC50s for mitoROS suppression than did mitoTEMPO

CC1(C)CC(NC(=O)CCCCC[P+](c2ccc(F)cc2)(c2ccc(F)cc2)c2ccc(F)cc2)CC(C)(C)N1[O].[Br-] [compound 86, 2,2,6,6-Tetramethyl-4-[[6-(tri-4-fluorophenylphosphonio)-hexanoyl]amino]-1-piperidinyloxy Bromide]
half maximal effective concentration (EC50) for mitoROS suppression [1]: lower EC50s for mitoROS suppression than did mitoTEMPO

CC1(C)CC(NC(=O)C[P+](c2ccc(F)cc2)(c2ccc(F)cc2)c2ccc(F)cc2)CC(C)(C)N1[O].[Cl-] [compound 94, 2,2,6,6-Tetramethyl-4-[[2-(tri-4-fluorophenylphosphonio)-acetyl]amino]-1-piperidinyloxy Chloride]
body weight [2]: did not affect | diastolic dysfunction as measured by E/e′ ratio (diabetic mice): Diastolic dysfunction is treated
